Values joined by “and” are separate entries in the source; they are usually repeats but may differ in a detail not shown here. Equal entries are not always repeated.
Assays:
mice having induced ITP = assay: In vivo treatment of ITP induced by rabbit anti-platelet antibody, platelet counting by flow cytometry; design: species or system CD-1 mice; details: for Platelet counts, individual mice: intraperitoneal, 24 hours, listed as AP; for Platelet counts, mean: 3 mice, ITP alone mean 170.7, Nil 1016
Procedure: Mice: CD-1 mice approximately 6-8 weeks of age were obtained from Charles River (Montreal). The animals were housed 3-5 per cage in filter-topped cages. The temperature and relative humidity were maintained at […] and 35-70%, respectively, and a 12 hour light/dark cycle was used. The mice were fed rodent chow and water ad libitum.
Anti-platelet antibodies to induce ITP: A rabbit anti-platelet antibody (Inter-Cell Technologies, Inc., Jupiter, Fla.; Cat. No. A31440) was used to induce ITP. Each mouse received 10 μl antibody-containing serum, diluted with 190 μl PBS for injection, such that the final injection volume was 200 μl for all groups injected with anti-platelet antibody.
On the day of use, one vial of rabbit anti-platelet antibody was removed from the freezer, placed in a 22° C. water bath, and shaken. The tube was checked every 30 seconds, and when it was completely thawed it was placed in a microcentrifuge and centrifuged at 10,000×g (11,000 rpm) for 10 minutes at 4° C. The supernatant fluid was transferred to a new tube and the pellet was discarded. The supernatant was placed on ice until used or diluted, as appropriate. Unused portions of the sera were discarded.
Therapeutic treatment of ITP: IVIg was used as a standard control treatment for the ITP induced by the rabbit anti-platelet antibody. The IVIg was Gamimmune® N, 10%. Treatment with IVIg consisted of an intraperitoneal injection of 50 mg (500 μl) IVIg, a dose that was equivalent to a dose of 2,000 mg/kg body weight.
Platelet enumeration: All mice were bled via the saphenous vein. 50 μL of blood were collected into 450 μL PBS/1% EDTA. The blood was further diluted in PBS/1% EDTA. Platelets were enumerated by flow cytometry with a Guava microcapillary cytometer (Guava EasyCyteMini, Guava Technologies, Inc., Hayward, Calif.), using forward scatter (FSC) versus side scatter (SSC) to gate platelets.
Peptides used to inhibit ITP: Peptides having the amino acid sequences set forth in SEQ ID NO:2 ([…]), SEQ ID NO:20 ([…]), and a control peptide in which Trp7, Val13 and Trp14 of SEQ ID NO:20 were replaced by alanines ([…]; SEQ ID NO:57) were tested for their ability to inhibit ITP. Alanine substation of Val13 and Trp14 causes a decrease in binding affinity (measured by ΔΔG, where G=Gibbs Energy) of greater than 1,000 fold.
Peptides were stored at −20° C. until the day of use. On the day of use, peptides were removed from the freezer, placed in a 22° C. water bath, shaken, and checked every 30 seconds for thawing. When thawed, the peptides were placed on ice until use. For samples that received a 10× dose of peptide, the following were sequentially added to a 1.5 ml polypropylene Eppendorf tube: 623 μl PBS (pH 7.22), 35 μL rabbit anti-plaletet IgG, and 42 μl peptide, with mixing after each addition. For samples having a 100× dose of peptide, the following were added sequentially to a 1.5 ml polypropylene Eppendorf tube: 245 μl PBS (pH 7.22), 35 μL rabbit anti-plaletet IgG, and 420 μl peptide, with mixing after each addition. The peptides were incubated for at least 30 minutes at 22° C. prior to injection into mice. (A 15 minute incubation in the laboratory, transport of the mixtures to the Vivarium, and injection took roughly an additional 30 minutes.)
The final volume of each peptide mixture was 700 μL, which was sufficient for injection of 3 mice (200 μl/mouse, plus 100 μl to cover dead volume). For the 10× dose/mouse of peptide, 12 μg of peptide (12 μl of 1 mg/ml solution) was mixed with 100 μg of the rabbit anti-platelet IgG (10 μl of 10 mg/ml solution). The volume of 700 μl was about 3.5× the volume injected per mouse (200 μl). To obtain the dose of peptide and rabbit IgG for the 700 μl final volume, dose of peptide or Rabbit IgG per mouse was multiplied by 3.5 (e.g., 12 μl peptide/mouse×3.5=42 μl, 10 μl Rabbit IgG/mouse×3.5=35 μl). PBS (623 μl, pH 7.22) was added to make up the final volume 700 μl. […]

[1] = system: Fc receptor (FcγI, FcγIIa/FcγIIb, and FcγIII); assay: FcγR reverse ELISA, overall statements on FcR binding to PAP immune complexes
Procedure: Once the reverse ELISA protocol was established using the C1q assay, the assay was redesigned using FcγIIa, FcγIIb and FcγIII in place of C1q. Highly purified FcγIIa, FcγIIb and FcγIII (R&D Systems, Minneapolis, Minn.) were immunoadsorbed onto plastic microwells. After optimizing the FcγR reverse ELISA system, simple competitive inhibition experiments using polypeptides provided herein were conducted to investigate their ability to inhibit binding of immune complexes to purified FcγR.
Falcon microtiter plates were coated with 1:10 dilutions of highly purified FcγIIa, FcγIIb and FcγIII and incubated for 24 hours. The plates were washed and then blocked with 5×BSA blocking solution (Alpha Diagnostic International, San Antonio, Tex.) for 24 hours. PAP immune complexes were formed as described in Example 1. PAP (100 μl) were pre-incubated with 100 μl of peptide for one hour. PAP/peptide mixtures were added to the FcγR coated plates and incubated for one hour. After washing, plates were incubated with ABTS substrate (Quidel Corp.) for 15 minutes and read at 405 nm.
Experiments with SEQ ID NO:20 were repeated. Costar microtiter plates were coated with 1:10 dilutions of highly purified FcγIIa (His 131 allele aka […]), FcγIIb and FcγIIIb and incubated for 24 hours. […] After washing, plates were incubated with ABTS substrate for 15 minutes and read at 405 nm.

[2] = ITP + 10X molar amount of peptide
[3] = ITP + 100X molar amount of peptide

Q: With “Ala-Pro-Pro-Asp-Cys-Ala-Trp-His-Leu-Gly-Glu-Leu-Val-Trp-Cys-Thr (APPDCAWHLGELVWCT) [SEQ ID NO:20]” as the substance, how does the “Platelet counts, individual mice” value (mice having induced ITP; [2]) read?
A: Its value is 2.03e+11 L⁻¹ and 2.61e+11 L⁻¹ and 1.97e+11 L⁻¹.

Q: What about the “Platelet counts, mean” value (mice having induced ITP; [2]) of the same substance?
A: The value was 2.203e+11 L⁻¹.

Q: And the “Platelet counts, individual mice” value (mice having induced ITP; [3])?
A: The value was 7.59e+11 L⁻¹ and 6.42e+11 L⁻¹ and 4.33e+11 L⁻¹.

Q: What about the “Platelet counts, mean” value (mice having induced ITP; [3]) of the same substance?
A: The value was 6.113e+11 L⁻¹.

Q: And the “Effect on induced ITP, 100× versus 10×” value (mice having induced ITP; first experiment, 100× molar)?
A: The value was “greater effect than 10× Peptide AP”.

Q: What about the “Effect on induced ITP” value (mice having induced ITP; first experiment, Table 4, 10× and 100× molar) of the same substance?
A: Its value is “ameliorated induced ITP”.

Q: What about the “Amelioration of induced ITP/AITP compared with IVIg” value (mice having induced ITP; second experiment, FIG. 1, 10× molar and 100× molar, 24 hours after treatment) of the same substance?
A: The value was “ameliorated the induced ITP/AITP better than the currently accepted treatment for ITP (IVIg)”.

Q: And the “Overall inhibition of FcR binding to PAP (ranking in words)” value ([1]; summary of Table 2: FcγIIa, FcγIIb, FcγIIIa)?
A: Its value is “greatest overall inhibition of FcR binding to PAP”.

Q: And the “Inhibition of Fc receptor binding to soluble PAP immune complexes” value ([1]; summary of Table 3)?
A: Its value is “inhibited binding of all three major classes of Fc receptor”.
